# Source: PMC11728000, “Antitumor Activity and Multi-Target Mechanism of Phenolic Schiff Bases Bearing Methanesulfonamide Fragments: Cell Cycle Analysis and a Molecular Modeling Study” (International Journal of Molecular Sciences, 2024)
# Where two headings read alike, the source gives them in different places.
# Experiments:
# [1] = system: Breast Cancer subpanel tumor cell lines; assay: NCI anticancer screening, subpanel summary; assay type: cell-based; conditions: Breast Cancer, mean over subpanel cell lines
# [2] = system: Renal Cancer subpanel tumor cell lines; assay: NCI anticancer screening, subpanel summary; assay type: cell-based; conditions: mean over subpanel cell lines
# [3] = system: CNS Cancer subpanel tumor cell lines; assay: NCI anticancer screening, subpanel summary; assay type: cell-based; conditions: mean over subpanel cell lines
# [4] = system: 59 human cancer cell lines; assay: NCI anticancer screening, full panel summary
# COLO 205 = assay: NCI anticancer screening (SRB), Colon Cancer subpanel; assay type: cell-based, human
# NCI-H322M = assay: NCI anticancer screening (SRB), Non-Small Cell Lung Cancer subpanel; assay type: cell-based, human
# [5] = system: Ovarian Cancer subpanel tumor cell lines; assay: NCI anticancer screening, subpanel summary; assay type: cell-based; conditions: Ovarian Cancer, mean over subpanel cell lines
# [6] = system: Prostate Cancer subpanel tumor cell lines; assay: NCI anticancer screening, subpanel summary; assay type: cell-based; conditions: mean over subpanel cell lines
# HT29 = assay: NCI anticancer screening (SRB), Colon Cancer subpanel; assay type: cell-based, human
# SNB-75 = assay: NCI anticancer screening (SRB), CNS Cancer subpanel; assay type: cell-based, human
# [7] = system: Colon Cancer subpanel tumor cell lines; assay: NCI anticancer screening, subpanel summary; assay type: cell-based; conditions: mean over subpanel cell lines
# RPMI-8226 = assay: NCI anticancer screening (SRB), Leukemia subpanel; assay type: cell-based, human
# [8] = system: Leukemia subpanel tumor cell lines; assay: NCI anticancer screening, subpanel summary; assay type: cell-based; conditions: Leukemia, mean over subpanel cell lines
# [9] = system: Melanoma subpanel tumor cell lines; assay: NCI anticancer screening, subpanel summary; assay type: cell-based; conditions: mean over subpanel cell lines
# [10] = Homo sapiens, read-out: LC50, subpanel average
# [11] = Homo sapiens, five concentrations
compound,measurement,setting,value
CCN(CC)c1ccc(C=NNC(=O)c2ccc(NS(C)(=O)=O)cc2)c(O)c1 [Compound 8],"TGI, subpanel average",[1],15220 nM
same,GI50,[1]; Homo sapiens,599 nM
same,CC50,[1]; [10],99800 nM
same,GI50,[2]; Homo sapiens,826 nM
same,CC50,[2]; [10],80600 nM
same,"TGI, subpanel average",[2],23370 nM
same,GI50,[3]; Homo sapiens,451 nM
same,CC50,[3]; [10],86600 nM
same,"TGI, subpanel average",[3],14140 nM
same,GI50,"[4]; Homo sapiens, read-out: GI50 MG-MID",501 nM
same,GI50,"[4]; Homo sapiens, read-out: GI50 range over the cell lines",141 to 2720 nM
same,CC50,"[4]; Homo sapiens, read-out: LC50 MG-MID",> 100000 nM
same,TGI MG-MID,[4]; full panel mean-graph midpoint,46800 nM
same,PCE (positive cytotoxic effect),"[4]; ratio of cell lines with growth inhibition > 10% to total cell lines, 10 µM single dose",59/59
same,GI%,COLO 205; 10.0 µM in one dose,94%
same,GI50,COLO 205; [11],349 nM
same,GI%,NCI-H322M; 10.0 µM in one dose,75%
same,GI50,NCI-H322M; [11],258 nM
same,GI50,[5]; Homo sapiens,1030 nM
same,CC50,[5]; [10],94900 nM
same,GI50,[5],1030 nM
same,"TGI, subpanel average",[5],52900 nM
same,GI50,[6]; Homo sapiens,527 nM
same,CC50,[6]; [10],98000 nM
same,"TGI, subpanel average",[6],60800 nM
same,GI%,HT29; 10.0 µM in one dose,73%
same,GI50,"HT29; Homo sapiens, HT-29, five concentrations",495 nM
same,GI%,SNB-75; 10.0 µM in one dose,52%
same,GI50,SNB-75; [11],519 nM
same,GI50,[7]; Homo sapiens,400 nM
same,"LC50 (NCI-60 lethal concentration, subpanel average)",[7]; Homo sapiens,80100 nM
same,"TGI, subpanel average",[7],30530 nM
same,GI%,RPMI-8226; 10.0 µM in one dose,84%
same,GI50,"RPMI-8226; Homo sapiens, PRMI-8226, five concentrations",2720 nM
same,GI50,[8]; Homo sapiens,700 nM
same,CC50,[8]; [10],> 100000 nM
same,"TGI, subpanel average",[8],79880 nM
same,GI50,[9]; Homo sapiens,563 nM
same,CC50,[9]; [10],93600 nM
same,"TGI, subpanel average",[9],21640 nM
